The subject of one test is MRSA ATCC BAA-44. As to the kind of experiment: MIC on MRSA ATCC BAA-44. The class given is cell-based, S. aureus. The conditions noted are these: for MIC: Staphylococcus aureus. The protocol:
MRSA BAA-44: MRSA ATCC BAA-44 was grown from a glycerol stock by placing a small volume of cells onto a Mueller-Hinton agar plate (MHA). The MHA plate was incubated overnight at 37° C. A single colony was used to inoculate Mueller-Hinton broth (MHB) to obtain a bacterial broth suspension. The MHB broth suspension was grown at 37° C. on a rotary shaking incubator (100 rpm) for 12 hours. The bacterial cell concentration was adjusted to ˜5×10^5 colony forming units per milliliter (CFU/mL) in MHB−/+10, 20, or 40% FBS using optical density (OD) at 595 nm. 500 μL aliquots of the adjusted bacterial cell suspension were placed into borosilicate glass tubes. The cell suspensions were treated with 100 μM compound of interest and serially diluted two-fold. The culture tubes were incubated for 18 hours at 37° C. Efficacy was either assessed visually or by adding 10% v/v MTT (5 mg/mL stock) after the 18 hour incubation period, where the cell suspensions were subsequently incubated for 10 minutes to allow the MTT reagent to carry out the colorimetric reaction.

In test [1] the test system is A. baumannii ATCC BAA-1797. In words: MIC on A. baumannii ATCC BAA-1797. The format is cell-based. The protocol: A. baumannii: A. baumannii ATCC BAA-1797 was grown from a glycerol stock by placing a small volume of cells onto a MHA plate. The MHA plate was incubated overnight at 37° C. A single colony was used to inoculate MHB to obtain a bacterial broth suspension. The MHB broth suspension was grown at 37° C. on a rotary shaking incubator (100 rpm) for 12 hours. The bacterial cell concentration was adjusted to ˜5×10^5 CFU/mL in MHB or MHB+10%, 20% or 40% FBS using OD at 595 nm. 500 μL aliquots of the adjusted bacterial cell suspension were placed into borosilicate glass tubes. The cell suspensions were treated with a compound of interest, and the treatments were serially diluted two-fold. The culture tubes were incubated for 18 hours at 37° C. Efficacy was either assessed visually or by adding 10% v/v MTT (5 mg/mL stock) after the 18 hour incubation period. The cell suspensions were subsequently incubated for 10 minutes to allow the MTT reagent to carry out the colorimetric reaction. The OD was read at 595 nm.

Setting [2] is: 10% FBS, read-out: MIC (μM) in MRSA BAA-44 10% FBS.
Setting [3] is: Acinetobacter baumannii, ATCC 1797 / ATCC BAA-1797, 0% FBS, read-out: MIC (μM) in MDR A. baumannii ATCC 1797 0% FBS.
Where [4] appears, read: Acinetobacter baumannii, ATCC 1797 / ATCC BAA-1797, read-out: MIC (μM) in MDR A. baumannii ATCC 1797 40% FBS, 40% FBS.
Where [5] appears, read: 0% FBS, read-out: MIC (μM) in MDR A. baumannii ATCC 1797 0% FBS.
Where [6] appears, read: Acinetobacter baumannii, ATCC 1797 / ATCC BAA-1797, 10% FBS, read-out: MIC (μM) in MDR A. baumannii ATCC 1797 10% FBS.
The mark [7] stands for this setting: no serum (note in the cell), read-out: MIC (μM) in MRSA BAA-44.
The mark [8] stands for this setting: in FBS (note in the cell, percentage not given), read-out: MIC (μM) in MRSA BAA-44.

Converted amounts (≈) assume the structure as drawn. Like-named read-outs stand apart in the source and are kept apart here.

On to `C(=N\Nc1ncccn1)/c1c[nH]c2ccccc12` [Compound 19, (E)-3-((2-(pyrimidin-2-yl)hydrazineylidene)methyl)-1H-indole], for which the minimal inhibitory concentration (MIC) (with MRSA ATCC BAA-44 (setting [2]); in test [1] (setting [3]); in test [1] (setting [4])) was greater than 100 µM each time.

As to `Brc1ccc(N/N=C/c2c[nH]c3cccc(OCc4ccccc4)c23)cc1` [Compound 34, (E)-4-(benzyloxy)-3-((2-(4-bromophenyl)hydrazineylidene)methyl)-1H-indole], the “MIC (μM) in MRSA BAA-44” value against MRSA ATCC BAA-44 (no serum (note in the cell)) is on record as 25 (no serum) μM. The MIC in test [1] (setting [5]) came to 3 µM (≈ 1.26 µg/mL). Moreover, the “MIC (μM) in MDR A. baumannii ATCC 1797 40% FBS” value in test [1] (40% FBS) came out at 50 µM (≈ 21 µg/mL).

On to `Brc1ccc(N/N=C/c2c[nH]c3ccc(Br)cc23)cc1` [Compound 23, (E)-1-((5-bromo-1H-indol-3-yl)methylene)-2-(4-bromophenyl)hydrazin-1-ium chloride], for which the MIC in test [1] (setting [3]) was 12.5 µM; in test [1] (Acinetobacter baumannii, ATCC 1797 / ATCC BAA-1797, in human serum (note in the cell of the 40% FBS column), read-out: MIC (μM) in MDR A. baumannii ATCC 1797), less than 100 µM.

In the case of `N=C(N)NCCC[C@H](N)C(=O)Oc1cccc2[nH]cc(/C=N/Nc3ccc(Cl)cc3)c12` [Compound 16, (E)-3-((2-(4-chlorophenyl)hydrazineylidene)methyl)-1H-indol-4-yl argininate], the MIC in the test with MRSA ATCC BAA-44 (setting [2]) was greater than 100 µM; in test [1] (setting [3]), 3 µM (≈ 1.33 µg/mL); in test [1] (setting [6]), greater than 100 µM; in test [1] (setting [4]), greater than 100 µM.

`Nc1cccc2c(S(=O)(=O)N/N=C/c3c[nH]c4cccc(OCc5ccccc5)c34)cccc12` [Compound 33, (E)-5-amino-N′-((4-(benzyloxy)-1H-indol-3-yl)methylene)naphthalene-1-sulfonohydrazide]: the MIC (in the test on MRSA ATCC BAA-44 (setting [7]); in test [1] (setting [3]); in test [1] (setting [4])) was greater than 100 µM throughout.

Consider `FC(F)(F)c1ccc(N/N=C/c2c[nH]c3cccc(OCc4ccccc4)c23)cc1` [Compound 37, (E)-4-(benzyloxy)-3-((2-(4-(trifluoromethyl)phenyl) hydrazineylidene)methyl)-1H-indole], for which the MIC was 12.5 µM (≈ 5.12 µg/mL) with MRSA ATCC BAA-44 (setting [7]), greater than 100 µM in test [1] (setting [3]) and greater than 100 µM in test [1] (setting [4]).

On to `Oc1cccc2[nH]cc(/C=N/Nc3ccc(F)cc3)c12` [Compound 21, (E)-3-((2-(4-fluorophenyl)hydrazineylidene)methyl)-1H-indol-4-ol], for which the MIC with MRSA ATCC BAA-44 (setting [8]) is greater than 100 µM; in the test with MRSA ATCC BAA-44 (setting [7]) it was 25 µM (≈ 6.73 µg/mL); in test [1] (setting [3]), 25 µM (≈ 6.73 µg/mL); in test [1] (setting [4]), greater than 100 µM.

Turning to `Oc1cccc2[nH]cc(/C=N/Nc3ccc(Br)cc3)c12` [Compound 20, (E)-3-((2-(4-bromophenyl)hydrazineylidene)methyl)-1H-indol-4-ol], the MIC is greater than 100 µM in the test on MRSA ATCC BAA-44 (setting [8]), 25 µM (≈ 8.25 µg/mL) in the test with MRSA ATCC BAA-44 (setting [7]), 25 µM (≈ 8.25 µg/mL) in test [1] (setting [3]) and greater than 100 µM in test [1] (setting [4]).

`O=S(=O)(N/N=C/c1c[nH]c2cccc(OCc3ccccc3)c12)c1ccccc1` [Compound 29, (E)-N′-((4-(benzloxy)-1H-indol-3-yl)methylene)benzenesulfonohydrazide]: the MIC in test [1] (setting [3]) and in test [1] (setting [4]) was greater than 100 µM in each case.

Regarding `Fc1ccc(N/N=C/c2c[nH]c3cccc(OCc4ccccc4)c23)cc1` [Compound 31, (E)-4-(benzyloxy)-3-((2-(4-fluorophenyl)hydrazineylidene)methyl)-1H-indole], the MIC in the test with MRSA ATCC BAA-44 (setting [2]) was roughly 100 µM (≈ 35.9 µg/mL); in test [1] (setting [5]) it was 12.5 µM (≈ 4.49 µg/mL).

Take `Cn1cc(/N=N/c2ccc(Br)cc2)c2c([N+](C)(C)C)cccc21` [Compound 2, (E)-3-((4-bromophenyl)diazenyl)-N,N,N,1-tetramethyl-1H-indol-4-aminium iodide]: the MIC (in the test with MRSA ATCC BAA-44 (setting [2]); in test [1] (setting [3])) was greater than 100 µM each time.

For `N#CCC(=O)N/N=C/c1c[nH]c2ccccc12` [Compound 11, (E)-N′-((1H-indol-3-yl)methylene)-2-cyanoacetohydrazide], the MIC (in the test on MRSA ATCC BAA-44 (setting [2]); in test [1] (setting [3]); in test [1] (setting [6]); in test [1] (setting [4])) was greater than 100 µM in each case.

Turning to `NC(=O)CC(N)C(=O)Nc1cccc2[nH]cc(/N=N/c3ccc(Br)cc3)c12` (stereo not drawn) [Compound 5, (E)-2-amino-N^1-(3-((4-bromophenyl)diazenyl)-1H-indol-4-yl)succinamide], the MIC in test [1] (setting [3]) and in test [1] (setting [6]) was greater than 100 µM in each case.

On to `CC(C)(C)OC(=O)Nc1cccc2[nH]cc(/C=N/Nc3ccc(Cl)cc3)c12` [Compound 18], for which the MIC with MRSA ATCC BAA-44 (MRSA ATCC BAA-44, serum not stated, read-out: MIC) was 12.5 µM (≈ 4.81 µg/mL); with MRSA ATCC BAA-44 (setting [7]), 12.5 µM (≈ 4.81 µg/mL); in test [1] (setting [3]), 3 µM (≈ 1.15 µg/mL); in test [1] (setting [4]), greater than 100 µM; in test [1] (Acinetobacter baumannii, ATCCBAA1797, 18 h, read-out: MIC in the presence of 40% FBS, A. baumannii ATCC BAA-1797, 40% FBS), greater than 100 µM; in test [1] (Acinetobacter baumannii, ATCCBAA1797, A. baumannii ATCC BAA-1797, absence of serum, read-out: MIC in the absence of serum), 3 µM (≈ 1.15 µg/mL).

Turning to `O=[N+]([O-])c1ccc2[nH]cc(/N=N/c3ccc(Br)cc3)c2c1` [Compound 3, (E)-3-((4-bromophenyl)diazenyl)-5-nitro-1H-indole], the MIC in test [1] (setting [3]) and in test [1] (setting [6]) was greater than 100 µM throughout.

Consider `Brc1ccc(/N=N/c2c[nH]c3cccc(Nn4nnc5ccccc54)c23)cc1` [Compound 1, (E)-N-(3-((4-bromophenyl)diazenyl)-1H-indol-4-yl)-1H-benzo[d][1,2,3]triazol-1-amine], for which the MIC in test [1] (setting [3]) was found to be 50 µM (≈ 21.6 µg/mL).

With `Cn1cc(/C=N/Nc2ccc(Br)cc2)c2c(OCc3ccccc3)cccc21` [Compound 45, (E)-4-(benzyloxy)-3-((2-(4-bromophenyl)hydrazineylidene)methyl)-1-methyl-1H-indole], the MIC in the test with MRSA ATCC BAA-44 (in 40% FBS (note in the cell), read-out: MIC (μM) in MRSA BAA-44) was greater than 100 µM; with MRSA ATCC BAA-44 (setting [7]), 25 µM (≈ 10.9 µg/mL); in test [1] (setting [3]) it was 25 µM (≈ 10.9 µg/mL); in test [1] (setting [4]), 50 µM (≈ 21.7 µg/mL).

`C(=N\Nc1ccccc1)/c1c[nH]c2ccccc12` [Compound 8, (E)-3-((2-phenylhydrazineylidene)methyl)-1H-indole]: the MIC is greater than 100 µM in the test with MRSA ATCC BAA-44 (setting [2]), 40 µM (≈ 9.41 µg/mL) in test [1] (setting [3]), greater than 100 µM in test [1] (setting [6]) and 50 µM (≈ 11.8 µg/mL) in test [1] (setting [4]).

In the case of `O=C(O)c1ccc(N/N=C/c2c[nH]c3ccccc23)cc1` [Compound 10, (E)-4-(2-((1H-indol-3-yl)methylene)hydrazineyl) benzoic acid], the MIC is 100 µM (≈ 27.9 µg/mL) in the test with MRSA ATCC BAA-44 (setting [7]) and greater than 100 µM in test [1] (setting [3]).

Regarding `O=[N+]([O-])c1ccc(N/N=C/c2c[nH]c3ccccc23)cc1` [Compound 9, (E)-3-((2-(4-nitrophenyl)hydrazineylidene)methyl)-1H-indole], the MIC in test [1] (setting [3]) was greater than 100 µM.

In the case of `CC(=O)n1cc(/C=N/Nc2ccc(Cl)cc2)c2ccccc21` [Compound 24, (E)-1-(3-((2-(4-chlorophenyl)hydrazineylidene)methyl)-1H-indol-1-yl)ethan-1-one], the MIC in test [1] (setting [3]) is less than 100 µM; in test [1] (setting [4]), greater than 100 µM.

In the case of `C(=N\Nc1ncccn1)/c1c[nH]c2cccc(OCc3ccccc3)c12` [Compound 36, (E)-4-(benzyloxy)-3-((2-(pyrimidin-2-yl)hydrazineylidene)methyl)-1H-indole], the minimal inhibitory concentration (MIC) (with MRSA ATCC BAA-44 (setting [7]); in test [1] (setting [3]); in test [1] (setting [4])) was greater than 100 µM each time.

Turning to `Clc1ccc(N/N=C/c2c[nH]c3cccc(OCc4ccccc4)c23)c(Cl)c1` [Compound 32, (E)-4-(benzyloxy)-3-((2-(2,4-dichlorophenyl)hydrazineylidene)methyl)-1H-indole], the MIC in test [1] (setting [3]) was greater than 100 µM.

With `N#Cc1ccc(N/N=C/c2c[nH]c3cccc(OCc4ccccc4)c23)cc1` [Compound 28], the MIC in test [1] (setting [3]) turned out to be 25 µM (≈ 9.16 µg/mL); in test [1] (setting [4]), 100 µM (≈ 36.6 µg/mL).

In general, MIC refers to the smallest concentration in the dilution series that meets the test's criterion for growth inhibition.
